Results taken from US12404260B2, “Pyridine rings containing derivatives as MALT1 inhibitors” (Janssen Pharmaceutica NV, priority 2019, dated 2025).

Key:
[1] = tested on: secretion of IL10 by OCI-LY3 ABC-DLBCL cells; test: Human IL10 Mesoscale assay (OCI-LY3); type: cell-based; conditions: 24 h incubation, IL10 in supernatant
Procedure, shortened: (§1)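 OCI-LY3 cells (100,000/well) treated 24 h at 37° C with compounds, 9-point 1:2 dilutions from 15 μM to 58.6 nM (0.3% DMSO). Supernatant IL6 and IL10 quantified by Mesoscale electrochemiluminescence immunoassay; DMSO defined maximum signal, BTK inhibitor RN486 defined maximum inhibition.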

[2] = molecular target: T1, full-length MALT1 protein (Strep-MALT1(1-824)-His) (Homo sapiens, UniProt Q9UDY8); test: MALT1 Biochemical Protease Assay; conditions: 10 nM FL MALT1, 200 μM Ac-LRSR-AMC, 50 min pre-incubation, 4 h at RT; read-out: MALT1_Biochemical activity (Ac-LRSR-amc) IC50
T1 construct: full-length MALT1 protein (Strep-MALT1(1-824)-His) purified from baculovirus-infected insect cells; Strep (N); His (C); made in house; host or cells: baculovirus-infected insect cells
T1 sequence (Q9UDY8 1-824): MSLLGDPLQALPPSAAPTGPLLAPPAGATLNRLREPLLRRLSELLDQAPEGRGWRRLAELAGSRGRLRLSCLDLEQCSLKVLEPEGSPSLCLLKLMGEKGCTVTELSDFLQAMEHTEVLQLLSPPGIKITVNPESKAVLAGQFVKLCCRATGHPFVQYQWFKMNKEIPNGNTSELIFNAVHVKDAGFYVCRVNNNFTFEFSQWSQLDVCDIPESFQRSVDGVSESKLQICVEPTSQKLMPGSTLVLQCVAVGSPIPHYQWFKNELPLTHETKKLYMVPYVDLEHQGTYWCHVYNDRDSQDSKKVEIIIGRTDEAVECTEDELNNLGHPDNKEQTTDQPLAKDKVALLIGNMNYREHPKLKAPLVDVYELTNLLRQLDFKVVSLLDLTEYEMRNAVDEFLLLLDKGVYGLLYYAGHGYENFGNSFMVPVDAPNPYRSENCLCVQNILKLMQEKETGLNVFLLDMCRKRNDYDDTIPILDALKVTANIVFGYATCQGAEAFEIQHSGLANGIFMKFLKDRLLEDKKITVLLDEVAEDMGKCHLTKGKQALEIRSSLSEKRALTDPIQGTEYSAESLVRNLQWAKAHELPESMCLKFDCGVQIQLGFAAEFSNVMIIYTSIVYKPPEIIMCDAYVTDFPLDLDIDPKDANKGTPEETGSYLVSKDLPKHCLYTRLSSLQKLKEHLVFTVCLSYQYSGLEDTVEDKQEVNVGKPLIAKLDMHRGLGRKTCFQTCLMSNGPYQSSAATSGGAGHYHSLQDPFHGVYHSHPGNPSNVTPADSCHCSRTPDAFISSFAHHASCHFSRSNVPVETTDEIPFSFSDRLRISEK
Procedure, shortened: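 Full-length Strep-MALT1(1-824)-His from baculovirus-infected insect cells, 10 nM, preincubated with compound 50 min at RT; 200 μM Ac-LRSR-AMC (KM) in 50 mM Tris pH 7.5, 0.6 M citrate, 1 mM DTT, 1 mM EDTA, 0.05% BSA, 1.5% DMSO. Fluorescence 355/460 nm, 4 h minus time 0; 11-point 1:3 series 30 μM–0.5 nM, IC50 with Hill slope.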

[3] = tested on: secretion of IL6 by OCI-LY3 ABC-DLBCL cells; test: Human IL6 Mesoscale assay (OCI-LY3); type: cell-based; conditions: 24 h incubation, IL6 in supernatant
Procedure, shortened: as §1

SMILES: CO[C@@H](C)c1c(NC(=O)Nc2cnc(-n3nccn3)c(C#N)c2)cnc(C)c1Br [Co. 92]
- IC50 [1]: 1.51 µM
- IC50 [2]: 0.69 µM
- IC50 [3]: 3.02 µM

SMILES: COc1ncc(NC(=O)Nc2cnc(C)c(Br)c2[C@H](C)OC)cc1C#N [Co. 97]
- IC50 [1]: 0.09 µM
- IC50 [2]: 0.08 µM
- IC50 [3]: 0.14 µM

SMILES: CO[C@H](C)c1c(NC(=O)Nc2cnc(-n3nccn3)c(C(F)(F)F)c2)cnc(C)c1C#N [Co. 100]
- IC50 [1]: 0.06 µM
- IC50 [2]: 0.03 µM
- IC50 [3]: 0.09 µM

SMILES: CO[C@@H](C)c1c(NC(=O)Nc2cnc(-n3nccn3)c(C(F)(F)F)c2)cnc(C)c1C#N [Co. 101]
- IC50 [1]: 0.15 µM
- IC50 [2]: 0.21 µM
- IC50 [3]: 0.24 µM

SMILES: CO[C@@H](C)c1c(NC(=O)Nc2cnc(-n3nccn3)c(Cl)c2)cnc(C)c1Cl [Co. 105]
- IC50 [1]: 0.06 µM
- IC50 [2]: 0.04 µM
- IC50 [3]: 0.12 µM

SMILES: CO[C@@H](C)c1c(NC(=O)Nc2cnc(-n3nccn3)c(C(F)(F)F)c2)cnc(C)c1Cl [Co. 111]
- IC50 [1]: 0.06 µM
- IC50 [2]: 0.03 µM
- IC50 [3]: 0.09 µM

SMILES: CO[C@H](C)c1c(NC(=O)Nc2cnc(-n3nccn3)c(C(F)(F)F)c2)cnc(C)c1Cl [Co. 112]
- IC50 [1]: 0.48 µM
- IC50 [2]: 0.68 µM
- IC50 [3]: 0.87 µM

SMILES: CO[C@@H](C)c1c(NC(=O)Nc2cnc(-n3ncc([C@@H](C)O)n3)c(Cl)c2)cnc(C)c1C#N [Co. 115]
- IC50 [1]: 0.1 µM
- IC50 [2]: 0.06 µM
- IC50 [3]: 0.23 µM

SMILES: CO[C@@H](C)c1c(NC(=O)Nc2cnc(-n3nccn3)c(Cl)c2)cnc(N)c1Br [Co. 118]
- IC50 [1]: 1.51 µM
- IC50 [2]: 0.48 µM
- IC50 [3]: 2.75 µM

SMILES: CO[C@H](C)c1c(NC(=O)Nc2cnc(-n3nccn3)c(Cl)c2)cnc(N)c1Br [Co. 119]
- IC50 [1]: 0.05 µM
- IC50 [2]: 0.02 µM
- IC50 [3]: 0.09 µM

SMILES: CO[C@@H](c1c(NC(=O)Nc2cnc(-n3nccn3)c(C(F)(F)F)c2)cnc(C)c1C#N)C1CC1 [Co. 121]
- IC50 [1]: 0.04 µM
- IC50 [2]: 0.02 µM
- IC50 [3]: 0.06 µM

SMILES: CO[C@H](c1c(NC(=O)Nc2cnc(-n3nccn3)c(C(F)(F)F)c2)cnc(C)c1C#N)C1CC1 [Co. 122]
- IC50 [1]: 0.13 µM
- IC50 [2]: 0.06 µM
- IC50 [3]: 0.14 µM

SMILES: COc1cncc(NC(=O)Nc2cnc(-n3nccn3)c(C(F)(F)F)c2)c1[C@@H](C)OC [Co. 124]
- IC50 [1]: 0.11 µM
- IC50 [2]: 0.08 µM
- IC50 [3]: 0.15 µM

SMILES: COc1cncc(NC(=O)Nc2cnc(-n3nccn3)c(C(F)(F)F)c2)c1[C@H](C)OC [Co. 125]
- IC50 [1]: 2.24 µM
- IC50 [2]: 1.45 µM
- IC50 [3]: 4.57 µM

SMILES: COc1nc(-n2nccn2)c(C(F)(F)F)cc1NC(=O)Nc1cnc(NC(C)(C)C)c(Br)c1C(C)OC (stereo not drawn) [Co. 151]
- IC50 ([1]; Homo sapiens): > 15 µM
- IC50 [2]: > 30 µM
- IC50 ([3]; Homo sapiens): > 15 µM

SMILES: COc1c(NC(C)(C)C)ncc(NC(=O)Nc2cnc(-n3nccn3)c(C(F)(F)F)c2)c1C(C)OC (stereo not drawn) [Co. 152]
- IC50 ([1]; Homo sapiens): > 15 µM
- IC50 [2]: > 30 µM
- IC50 ([3]; Homo sapiens): > 15 µM
